Read-outs that look alike come from different tables or passages of the source.
Assays:
Format in all cases: biochemical
[1] = target: T1, HIV-1 reverse transcriptase (Human immunodeficiency virus type 1 group M subtype B, UniProt P04585); assay: HIV-1 reverse transcriptase assay (viral polymerase inhibition)
T1 construct: made in house
Description: Standard assays were run at 37° C. and contained: 50 mM Tris, pH b 8.0, 0.5 mM DTT, 8 mM MgCl2, 100 μg/mL BSA, 150 μg/mL gapped calf thymus DNA, 100 μM each dATP, dCTP, dGTP, 10 .parallel.M [^3 H]-dTTP, and 1-5 .parallel.L enzyme in a final volume of 50 .parallel.L. Modified assays for pH dependence inhibition studies with PFA (1) and α--oxo phosphonates (4 and 5) contained 50 mM Hepes, pH 8.2-6.5, 8 mM MgCl2, 100 mM KCl, 100 μg/ml BSA, 0.5 A260 units/ml of poly(rA).(dT)10, 100 μM [^3 H]dTTP, and 1.5 .parallel.L enzyme in a final volume of 50 μL. Samples were processed as described above.

[2] = target: T2, HSV-1 DNA polymerase (Human herpesvirus 1, UniProt P04293); assay: Viral polymerase inhibition, HSV-1
T2 construct: made in house
Description: Viral DNA polymerases (HSV-1, HSV-2, EBV) were purified by previously published methods (Derce, D. K. F. Bastow, and Y. C. Cheng (1982) J. Boil. Chem. 257:10251-10260; Ostrander, M., and Y. C. Cheng (1980) Biochim. Biophys. Acta 609:232-245; Tan, R. S., A. Datta. and Y. C. Cheng (1982) J. Virol. 44:893-899). These procedures generally included sequential chromatography on DEAE-cellulose. HIV reverse transcriptase was purified by antibody affinity column chromatography as descrbed (Starnes. M. C. and Y. C. Cheng (1989) J. Biol. Chem. 264:7073-7077). The purified enzymes were dialyzed against and stored in 50 mM Tris-HCl (pH 7.5) containing 1 mM each of DTT, EDTA and PMSF plus 30% glycerol. Mammalian DNA polymerases alpha, beta, gamma, and delta were partially purified from K562 celles (chronic myelogenous leukemia tissue culture line). Briefly, washed cell pellets were extracted and passed throgh DEAE-cellulose in the presence of 300 mM KPO4 (pH 7.5) as previously described (Starnes, M. C., and Y. C. Cheng (1987) J. Biol. Chem 282:988-981) to remove DNA. The column flow-through fractions were dialyzed against buffer which contained 50 mM Tris-HCl (pH 7.5), and fractionated on a single-stranded DNA-cellulose column with a 0-1M KCl gradient. […]

[3] = target: T3, human DNA polymerase γ (Homo sapiens, UniProt P54098); assay: Human DNA polymerase inhibition, gamma; details: for remaining activity at 100 µM: read-out: % Control at 100 μM ± S.D.
T3 construct: Mammalian DNA polymerases alpha, beta, gamma, and delta were partially purified from K562 celles; endogenous in cells; host or cells: K562 (chronic myelogenous leukemia tissue culture line)
T3 sequence (P54098 26-1239 limits assumed): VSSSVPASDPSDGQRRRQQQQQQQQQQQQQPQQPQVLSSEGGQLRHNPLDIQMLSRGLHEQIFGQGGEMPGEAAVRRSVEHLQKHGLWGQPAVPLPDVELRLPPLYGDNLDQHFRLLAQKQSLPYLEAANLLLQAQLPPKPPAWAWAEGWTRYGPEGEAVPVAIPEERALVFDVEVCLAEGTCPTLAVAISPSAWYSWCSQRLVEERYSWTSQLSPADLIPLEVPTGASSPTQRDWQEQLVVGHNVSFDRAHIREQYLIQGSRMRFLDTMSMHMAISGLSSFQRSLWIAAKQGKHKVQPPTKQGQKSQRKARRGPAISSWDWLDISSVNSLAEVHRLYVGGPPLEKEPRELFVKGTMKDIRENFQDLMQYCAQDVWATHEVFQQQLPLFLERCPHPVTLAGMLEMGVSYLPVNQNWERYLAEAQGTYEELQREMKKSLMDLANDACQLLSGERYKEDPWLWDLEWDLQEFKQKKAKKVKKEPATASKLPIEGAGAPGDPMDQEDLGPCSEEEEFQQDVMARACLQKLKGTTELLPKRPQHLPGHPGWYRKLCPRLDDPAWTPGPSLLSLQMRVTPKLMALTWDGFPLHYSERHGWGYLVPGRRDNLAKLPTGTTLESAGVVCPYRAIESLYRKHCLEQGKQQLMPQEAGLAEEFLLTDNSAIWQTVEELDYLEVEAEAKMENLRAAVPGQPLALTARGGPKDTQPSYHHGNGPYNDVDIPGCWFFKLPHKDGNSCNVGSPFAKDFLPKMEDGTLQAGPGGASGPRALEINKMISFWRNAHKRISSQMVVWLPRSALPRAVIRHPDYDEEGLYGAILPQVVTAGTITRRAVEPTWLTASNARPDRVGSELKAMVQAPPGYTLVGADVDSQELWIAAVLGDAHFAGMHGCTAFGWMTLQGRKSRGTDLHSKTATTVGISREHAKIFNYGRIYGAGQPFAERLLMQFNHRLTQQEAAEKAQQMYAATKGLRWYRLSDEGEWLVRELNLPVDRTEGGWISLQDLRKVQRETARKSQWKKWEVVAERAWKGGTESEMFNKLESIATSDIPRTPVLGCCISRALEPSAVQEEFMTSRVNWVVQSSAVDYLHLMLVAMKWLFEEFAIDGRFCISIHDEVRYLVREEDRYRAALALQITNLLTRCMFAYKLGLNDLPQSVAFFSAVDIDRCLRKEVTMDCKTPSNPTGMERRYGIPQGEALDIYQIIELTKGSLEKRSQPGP
T3 sequence (Q9UHN1 25-485 partner limits assumed): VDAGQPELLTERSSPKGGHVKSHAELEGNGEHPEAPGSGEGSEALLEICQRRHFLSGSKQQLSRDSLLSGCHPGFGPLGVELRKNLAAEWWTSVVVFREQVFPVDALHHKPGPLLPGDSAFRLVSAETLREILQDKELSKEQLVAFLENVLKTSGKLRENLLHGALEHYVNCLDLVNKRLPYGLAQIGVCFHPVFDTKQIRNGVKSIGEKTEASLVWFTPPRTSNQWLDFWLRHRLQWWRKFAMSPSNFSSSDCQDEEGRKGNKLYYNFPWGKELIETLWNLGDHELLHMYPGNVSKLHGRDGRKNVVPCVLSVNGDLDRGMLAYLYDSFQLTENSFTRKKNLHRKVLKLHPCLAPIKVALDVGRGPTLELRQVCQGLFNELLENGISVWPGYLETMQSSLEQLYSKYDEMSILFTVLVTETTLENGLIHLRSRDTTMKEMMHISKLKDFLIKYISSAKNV
Description: Viral DNA polymerases (HSV-1, HSV-2, EBV) were purified by previously published methods (Derce, D. K. F. Bastow, and Y. C. Cheng (1982) J. Boil. Chem. 257:10251-10260; Ostrander, M., and Y. C. Cheng (1980) Biochim. Biophys. Acta 609:232-245; Tan, R. S., A. Datta. and Y. C. Cheng (1982) J. Virol. 44:893-899). These procedures generally included sequential chromatography on DEAE-cellulose. HIV reverse transcriptase was purified by antibody affinity column chromatography as descrbed (Starnes. M. C. and Y. C. Cheng (1989) J. Biol. Chem. 264:7073-7077). The purified enzymes were dialyzed against and stored in 50 mM Tris-HCl (pH 7.5) containing 1 mM each of DTT, EDTA and PMSF plus 30% glycerol. Mammalian DNA polymerases alpha, beta, gamma, and delta were partially purified from K562 celles (chronic myelogenous leukemia tissue culture line). Briefly, washed cell pellets were extracted and passed throgh DEAE-cellulose in the presence of 300 mM KPO4 (pH 7.5) as previously described (Starnes, M. C., and Y. C. Cheng (1987) J. Biol. Chem 282:988-981) to remove DNA. The column flow-through fractions were dialyzed against buffer which contained 50 mM Tris-HCl (pH 7.5), and fractionated on a single-stranded DNA-cellulose column with a 0-1M KCl gradient.
In accordance with the teaching of the present invention similar enzyme inhibition assays were also conducted with respect to mammalian enzymes, more particularly, human DNA polymerase.

T2 sequence (P04293 whole entry): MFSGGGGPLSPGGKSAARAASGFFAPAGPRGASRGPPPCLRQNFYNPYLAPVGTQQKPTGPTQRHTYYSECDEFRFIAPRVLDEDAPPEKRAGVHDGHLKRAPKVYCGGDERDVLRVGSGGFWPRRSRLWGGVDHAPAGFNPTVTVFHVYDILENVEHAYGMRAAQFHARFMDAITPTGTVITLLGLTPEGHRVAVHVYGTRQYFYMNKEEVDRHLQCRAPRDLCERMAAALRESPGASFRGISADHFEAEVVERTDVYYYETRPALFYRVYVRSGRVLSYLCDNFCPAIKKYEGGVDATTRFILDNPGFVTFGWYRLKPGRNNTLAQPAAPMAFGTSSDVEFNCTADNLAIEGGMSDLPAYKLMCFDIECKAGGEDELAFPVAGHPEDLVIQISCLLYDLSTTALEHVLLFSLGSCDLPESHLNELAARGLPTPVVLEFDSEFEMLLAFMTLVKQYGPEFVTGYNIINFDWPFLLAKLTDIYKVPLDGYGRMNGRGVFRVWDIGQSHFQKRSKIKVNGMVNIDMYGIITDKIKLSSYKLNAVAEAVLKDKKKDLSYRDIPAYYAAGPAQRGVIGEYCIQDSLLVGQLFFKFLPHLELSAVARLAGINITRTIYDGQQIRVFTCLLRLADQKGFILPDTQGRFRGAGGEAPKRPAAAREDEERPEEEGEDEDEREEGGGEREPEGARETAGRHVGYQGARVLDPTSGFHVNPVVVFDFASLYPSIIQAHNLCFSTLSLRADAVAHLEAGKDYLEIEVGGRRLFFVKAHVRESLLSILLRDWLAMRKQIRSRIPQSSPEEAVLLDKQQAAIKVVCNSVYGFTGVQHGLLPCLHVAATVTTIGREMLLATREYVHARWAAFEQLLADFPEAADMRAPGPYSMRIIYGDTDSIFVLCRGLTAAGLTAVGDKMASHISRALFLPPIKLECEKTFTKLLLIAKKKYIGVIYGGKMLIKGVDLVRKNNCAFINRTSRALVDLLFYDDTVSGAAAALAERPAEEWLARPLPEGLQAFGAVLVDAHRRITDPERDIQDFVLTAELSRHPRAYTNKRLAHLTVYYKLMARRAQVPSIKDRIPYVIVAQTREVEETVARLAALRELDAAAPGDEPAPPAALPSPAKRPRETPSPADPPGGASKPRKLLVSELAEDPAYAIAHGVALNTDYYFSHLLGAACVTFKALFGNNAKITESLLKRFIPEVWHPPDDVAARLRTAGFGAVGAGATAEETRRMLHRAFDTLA

`O=C(O)P(O)(O)=S` [TPFA, thiophosphonoformic acid] was tested, and the IC50 [1] was 1000 nM, the IC50 [2] was 11800 nM and the IC50 [3] was greater than 100000 nM. It also gave a remaining activity at 100 µM [3] of 75 ± 3%.

Compound `O=C(O)P(=O)(O)O` [PFA, phosphonoformic acid] has an IC50 [1] of 700 nM, an IC50 ([2]; HSV-1, "activated" DNA, read-out: ID50 (the source's name)) of 700 nM and a remaining activity at 100 µM ([3]; Pol γ, 100 μM, "activated" DNA) of 55 ± 5%. The IC50 ([3]; Pol γ, "activated" DNA, read-out: ID50 (the source's name)) was greater than 100000 nM.

— US5072032A, “Preparation and use of thiophosphonates and thio-analogues of phosphonoformic acid” (priority 1989, dated 1991)
